Results taken from ChEMBL document CHEMBL1134880, “Quantum chemical- and 3-D-QSAR (CoMFA) studies of benzalacetones and 1,1,1-trifluoro-4-phenyl-3-buten-2-ones” (Bioorg Med Chem Lett, 2002).

The compounds below were run on Escherichia coli (assay: Inhibition of UV-induced mutagenesis in Escherichia coli WP2uvrA).
Type: functional, organism-based

Row | SMILES | IC50 [µM]
1 | O=C(/C=C/c1ccc(Cl)cc1)C(F)(F)F | 15.8
2 | CC(=O)/C=C/c1ccc(C)cc1 | 1580
3 | CC(=O)/C=C/c1ccc(Br)cc1 | 525
4 | CCOc1cccc(/C=C/C(C)=O)c1O | 1200
5 | CC(=O)/C=C/c1cccc(C)c1 | 1510
6 | CC(=O)/C=C/c1cccc(Br)c1 | 407
7 | CC(=O)/C=C/c1ccccc1F | 339
8 | CC(=O)/C=C/c1cccc(Cl)c1 | 427
9 | CC(=O)/C=C/c1ccc(C#N)cc1 | 170
10 | CC(=O)/C=C/c1ccc(C(F)(F)F)cc1 | 110
11 | CC(=O)/C=C/c1ccc(O)cc1 | 1200
12 | O=C(/C=C/c1cccc([N+](=O)[O-])c1)C(F)(F)F | 17
13 | N#Cc1cccc(/C=C/C(=O)C(F)(F)F)c1 | 17
14 | COc1ccc(/C=C/C(=O)C(F)(F)F)cc1 | 74.1
15 | CC(=O)/C=C/c1cccc(C(F)(F)F)c1 | 219
16 | CC(=O)/C=C/c1cccc(F)c1 | 257
17 | O=C(/C=C/c1ccccc1Cl)C(F)(F)F | 28.2
18 | COc1cccc(/C=C/C(C)=O)c1O | 676

Row | SMILES | IC50 [µM]
19 | O=C(/C=C/c1cccc(Cl)c1)C(F)(F)F | 24
20 | N#Cc1ccc(/C=C/C(=O)C(F)(F)F)cc1 | 25.1
21 | CCc1ccc(/C=C/C(C)=O)cc1 | 1200
22 | CC(=O)/C=C/c1ccccc1Cl | 525
23 | CC(=O)/C=C/c1cccc(C#N)c1 | 282
24 | COc1cccc(/C=C/C(C)=O)c1 | 708
25 | O=C(/C=C/c1ccccc1)C(F)(F)F | 30.2
26 | CC(=O)/C=C/c1ccc(Cl)cc1 | 324
27 | CC(=O)/C=C/c1ccc(F)cc1 | 631
28 | CC(=O)/C=C/c1cccc([N+](=O)[O-])c1 | 151
29 | CC(=O)/C=C/c1cc(C)c(O)c(C)c1 | 1100
30 | COc1ccc(/C=C/C(C)=O)cc1 | 1580
31 | CC(=O)/C=C/c1ccc(O)c(O)c1 | 977
32 | CC(=O)/C=C/c1ccccc1Br | 398
33 | CC(=O)/C=C/c1ccccc1O | 229
34 | CC(=O)/C=C/c1cccc(C)c1O | 240
35 | CC(=O)/C=C/c1ccc([N+](=O)[O-])cc1 | 83.2
